Holding throughout (type): cell-based
In assay [1] the test system is platelets. Description: Inhibition of clot retraction (thrombin-induced, platelets with fibrinogen). As for the experimental part: Platelets (2×10^8 platelets/ml) were incubated with either piceatannol at a final concentration of 40 μg/ml, calpeptin at a final concentration of 200 μg/ml, or vehicle DMSO for 30 minutes in the dark. To each sample, fibrinogen was added to a final concentration of 300 nM, 1 mM Ca^2+, and 2 mM Mg^2+, 10 minutes prior to the addition of 0.5 unit/ml of thrombin. The clots were incubated for 30 minutes at 37° C. and then transferred to ice before taking photographs. Tubes: 1, vehicle control treated sample without the addition of thrombin; 2, vehicle control treated sample; 3, piceatannol treated sample; 4, calpeptin treated sample.
To determine the effect of the syk kinase inhibitor piceatannol and the calpain inhibitor calpeptin, the following experiments were carried out. Platelets (2×10^8 platelets/ml) were incubated with either piceatannol at a final concentration of 40 μg/ml, calpeptin at a final concentration of 200 μg/ml, or vehicle DMSO for 30 minutes in the dark. To each sample, fibrinogen was added to a final concentration of 300 nM, 1 mM Ca^2+, and 2 mM Mg^2+, 10 minutes prior to the addition of 0.5 unit/ml of thrombin. The clots were incubated for 30 minutes at 37° C. and then transferred to ice before taking photographs. […]

The test system of assay [2] is platelets. Description: Clot lysis in the presence of platelets (t-PA/Glu-plasminogen, fluorescent fibrinogen release). The conditions noted are these: for Clot Lysis in the Presence of Platelets (value relative to control designated as 1): 90 min 37 C, t-PA 2 U/ml, Glu-plasminogen 20 ug/ml; for fibrinolysis of clots, of that of the control: clots made and lysed in the presence of platelets. As for the experimental part: To assess the effect of piceatannol and calpeptin on the fibrinolytic effect of t-PA and plasminogen in the presence of platelets, we designed a two step procedure by modifying the fibrinolytic assay as described by Fay et al. (Blood, 83, 351-356, 1994). First, we developed a retracted clot in the presence of fluorescence tagged fibrinogen in tubes containing platelets by the addition of thrombin. The residual fluid was taken out and platelets were added to each tube either treated with piceatannol, calpeptin and the vehicle control DMSO respectively. Glu-plasminogen, t-PA were added and the reaction was started by the addition of thrombin. After 90 minutes, the fluid from each tube was taken out and put in separate microfuge tubes followed by centrifugation. The detection of fluorescence in the supernatant was a measure of clot lysis. To form the clot, Oregon green 488 conjugated fibrinogen (fluorescent, from Molecular Probe) at 300 nM final concentration, 1 mM Ca^2+, 2 mM Mg^2+, was added to platelets at 2×10^8/ml concentration in 0.5 ml. The clot retraction was started with the addition of 0.5 unit/ml thrombin. The tubes were kept at 37° C. in dark for 1 hour until the clot retraction was complete. The residual fluid was taken out from each tube. To initiate clot lysis, platelets at 2×10^8/ml concentration were treated with either 40 ug/ml piceatannol, 200 ug/ml calpeptin or vehicle DMSO. In 0.25 ml of each, Glu-plasminogen was added to a final concentration of 20 μg/ml, and t-PA was added to a final concentration of 2 U/ml. The reaction was started with the addition of thrombin at final concentration of 0.5 U/ml. The tubes were kept at 37° C. for 90 minutes. The fluid from each tube was taken in separate microfuge tubes and centrifuged at cold at 14000 rpm for 10 minutes. The supernatants were isolated. Each supernatant was diluted to 5 times and fluorescence in each sample was measured at excitation: 495 nm and emission: 525 nm.

Assay [3] deals with platelets. Description: Nitric oxide production from platelets (NO-501 monitor, TRAP-stimulated). The following applies: 200 ug/ml, 20 uM TRAP, read for 300 seconds. As to the method:
FIGS. 2A and 2B show the effect of calpeptin on NO production. Platelets at 2×10^8/ml were pre-incubated with either calpeptin at final concentration 200 ug/ml or vehicle DMSO for 30 minutes in the dark. To a final volume of 0.5 ml, fibrinogen was added to a final concentration of 1 mg/ml, 1 mM Ca^2+, and 2 mM Mg^2+, and […]) to a final concentration of 20 μM. The tube was placed in the NO-501 monitor to measure NO production and the platelets are stirred with a magnetic stirrer. TRAP (Thrombin Receptor Agonist Peptide) at a final concentration of 20 μM was added to start the reaction. […] The readings were taken for 300 seconds (5 minutes). FIGS. 3A and 3B show the effect of piceatannol on NO production. Platelets at 2×10^8/ml were pre-incubated with either piceatannol at final concentration 2.5 ug/ml or vehicle DMSO for 30 minutes in the dark. To a final volume of 0.5 ml, fibrinogen was added to a final concentration of 1 mg/ml, 1 mM Ca^2+, and 2 mM Mg^2+, and GPRP to a final concentration of 20 μM. The tube was placed in the NO-501 monitor to measure NO production and the platelets are stirred with a magnetic stirrer. TRAP (Thrombin Receptor Agonist Peptide) at a final concentration of 20 μM was added to start the reaction. […] The readings were taken for 300 seconds (5 minutes). […]

The test system of assay [4] is platelets. The assay is described as follows: Platelet aggregation (TRAP-stimulated, recorded together with NO production). The conditions noted are these: 200 ug/ml. As for the experimental part: FIGS. 2A and 2B show the effect of calpeptin on NO production. Platelets at 2×10^8/ml were pre-incubated with either calpeptin at final concentration 200 ug/ml or vehicle DMSO for 30 minutes in the dark. To a final volume of 0.5 ml, fibrinogen was added to a final concentration of 1 mg/ml, 1 mM Ca^2+, and 2 mM Mg^2+, and GPRP (gly-pro-arg-pro) to a final concentration of 20 μM. The tube was placed in the NO-501 monitor to measure NO production and the platelets are stirred with a magnetic stirrer. TRAP (Thrombin Receptor Agonist Peptide) at a final concentration of 20 μM was added to start the reaction. […] The readings were taken for 300 seconds (5 minutes).
Platelets at 2×10^8/ml were pre-incubated with either calpeptin at final concentration 200 ug/ml or vehicle DMSO for 30 minutes in the dark. To a final volume of 0.5 ml, fibrinogen was added to a final concentration of 1 mg/ml, 1 mM Ca^2+, and 2 mM Mg^2+, and GPRP to a final concentration of 20 μM. The tube was placed in the NO-501 monitor to measure NO production and the platelets are stirred with a magnetic stirrer. TRAP (Thrombin Receptor Agonist Peptide) at a final concentration of 20 μM was added to start the reaction. […] The readings were taken for 300 seconds (5 minutes).

These results are taken from patent publication US8586292B2, “Methods for identifying compounds for treatment of thrombotic condition” (priority 2002, dated 2013).

In the case of `CC(C)(C)n1nc(-c2ccc(Cl)cc2)c2c(N)ncnc21` [PP2], the “effect on clot retraction” value in the assay on platelets [1] (10 uM (data not shown)) was “did not have any effect on clot retraction”.

Take `Oc1cc(O)cc(/C=C/c2ccc(O)c(O)c2)c1` [piceatannol]: in the assay on platelets [2] (40 ug/ml), the “Clot Lysis in the Presence of Platelets (value relative to control designated as 1)” value was determined as 6.2 and the “fibrinolysis of clots, of that of the control” value was “about 600%”.

On to `CCCC[C@@H](C=O)NC(=O)[C@H](CC(C)C)NC(=O)OCc1ccccc1` [calpeptin], for which, in the assay on platelets [1] (200 ug/ml, 30 min pre-incubation, 0.5 unit/ml thrombin, 30 min 37 C), the “effect on clot retraction” value is listed as “inhibited platelet mediated clot retraction”. For the same molecule, the NO production entry in the assay with platelets [3] is “increased and sustained NO production”. In addition, the “effect on platelet aggregation” value with platelets [4] was “inhibits both platelet aggregation and clot retraction”. Also, in the assay on platelets [2] (200 ug/ml), the “Clot Lysis in the Presence of Platelets (value relative to control designated as 1)” value is 6.2 and the “fibrinolysis of clots, of that of the control” value was “about 600%”.
